The target in one assay is D(2) dopamine receptor (Rattus norvegicus, UniProt P61169).
The target of a further assay is D(1A) dopamine receptor (Rattus norvegicus, UniProt P18901).

Here are results for one compound from BindingDB's records for doi:10.1124/jpet.301.3.1166 (University of North Carolina, 2002).

Molecules are shown by their SMILES. Where “and” joins values, the source holds several entries; their conditions need not be identical. Equal entries are not always repeated.

Sequence of D(2) dopamine receptor (P61169 whole entry): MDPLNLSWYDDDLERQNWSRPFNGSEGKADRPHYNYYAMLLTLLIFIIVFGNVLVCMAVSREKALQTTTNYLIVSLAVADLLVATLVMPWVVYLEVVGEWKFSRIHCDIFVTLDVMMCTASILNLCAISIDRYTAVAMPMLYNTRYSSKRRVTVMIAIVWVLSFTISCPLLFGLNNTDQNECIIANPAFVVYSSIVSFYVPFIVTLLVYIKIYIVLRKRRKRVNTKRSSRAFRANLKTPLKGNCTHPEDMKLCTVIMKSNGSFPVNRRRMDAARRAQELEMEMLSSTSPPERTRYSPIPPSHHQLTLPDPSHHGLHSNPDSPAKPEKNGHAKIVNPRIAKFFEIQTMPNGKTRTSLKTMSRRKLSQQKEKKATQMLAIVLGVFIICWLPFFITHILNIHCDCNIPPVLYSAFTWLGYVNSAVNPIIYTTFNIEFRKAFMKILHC
Sequence of D(1A) dopamine receptor (P18901 whole entry): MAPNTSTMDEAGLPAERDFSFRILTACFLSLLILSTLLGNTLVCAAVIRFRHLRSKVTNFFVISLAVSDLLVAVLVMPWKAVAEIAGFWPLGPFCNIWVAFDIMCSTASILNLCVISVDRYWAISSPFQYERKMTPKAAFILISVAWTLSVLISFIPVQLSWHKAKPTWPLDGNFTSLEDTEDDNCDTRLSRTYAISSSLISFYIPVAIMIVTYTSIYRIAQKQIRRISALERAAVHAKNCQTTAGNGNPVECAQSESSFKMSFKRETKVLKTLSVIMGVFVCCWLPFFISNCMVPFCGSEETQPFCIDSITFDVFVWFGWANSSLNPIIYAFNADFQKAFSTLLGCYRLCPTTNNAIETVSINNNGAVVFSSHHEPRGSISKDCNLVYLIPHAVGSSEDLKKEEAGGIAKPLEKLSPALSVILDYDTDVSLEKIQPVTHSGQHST

On to `CCCN1Cc2ccccc2[C@@H]2c3cc(O)c(O)cc3CC[C@H]21` [N-n-propyldihydrexidine, N-Pr-DHX], for which the Ki is 6.5 nM and 20 nM at D(2) dopamine receptor; 320 nM at D(1A) dopamine receptor.

As a reminder, the Ki is the equilibrium dissociation constant of an inhibitor or competing ligand from its target. Low values mean a stronger hold on the target, high ones a looser hold on the target.
